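All cell lines were grown in 96-well plates and treated with compound for 48 hours. GI50 is the concentration that inhibits growth by half. TGI: concentration producing complete growth inhibition.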
Assays:
Experiment in all cases: inhibition of tumour cell growth, NCI panel, 48 h
SK-MEL-2 melanoma = system: SK-MEL-2 melanoma
HOP-92 NSCLC = system: HOP-92 NSCLC
A549 NSCLC = system: A549 NSCLC
M14 melanoma = system: M14 melanoma
COLO 205 colon = system: COLO 205 colon
HOP-62 NSCLC = system: HOP-62 NSCLC
DU-145 prostate = system: DU-145 prostate
NCI/ADR-RES ovarian = system: NCI/ADR-RES ovarian
OVCAR-8 ovarian = system: OVCAR-8 ovarian
T-47D breast = system: T-47D breast

Structure (SMILES) | GI50 (SK-MEL-2 melanoma) | TGI (SK-MEL-2 melanoma) | GI50 (HOP-92 NSCLC) | TGI (HOP-92 NSCLC) | GI50 (A549 NSCLC) | TGI (A549 NSCLC) | GI50 (M14 melanoma) | TGI (M14 melanoma) | GI50 (COLO 205 colon) | TGI (COLO 205 colon) | GI50 (HOP-62 NSCLC) | TGI (HOP-62 NSCLC) | GI50 (DU-145 prostate) | TGI (DU-145 prostate) | GI50 (NCI/ADR-RES ovarian) | TGI (NCI/ADR-RES ovarian) | GI50 (OVCAR-8 ovarian) | TGI (OVCAR-8 ovarian) | TGI (T-47D breast) | GI50 (T-47D breast)
O=C(Nc1ccc(N2CCNCC2)cn1)c1[nH]ncc1Nc1ncnc2sccc12 | 7.72 µM | 25.9 µM | 1.76 µM | 5.65 µM | 1.66 µM | 3.45 µM | 1.86 µM | 3.65 µM | 1.72 µM | 3.88 µM | 2.99 µM | 14.7 µM | 3.57 µM | 12.2 µM | > 100 µM | > 100 µM | 1.96 µM | 4.02 µM |  | 
Cn1cc2ccccc2c1-c1nc(F)nc(Nc2ccc(N)cc2)n1 |  | 30.1 µM |  | 55.6 µM |  | 65.3 µM |  | 27.3 µM |  |  |  | 55.8 µM |  |  |  |  |  | 46.7 µM |  | 
CCC(C)(C)NS(=O)(=O)c1ccccc1 |  | > 100 µM |  |  |  | > 100 µM |  | > 100 µM |  |  |  | > 100 µM |  |  |  |  |  | > 100 µM |  | 
CCOc1ccc(N=Cc2ccc3ccccc3n2)cc1 |  | > 100 µM |  | > 100 µM |  | > 100 µM |  | > 100 µM |  | > 100 µM |  | > 100 µM |  |  |  |  |  | > 100 µM |  | 
CC(C)Cc1ccc(C(C)/C=C2\CCC(CN3CCCCC3)C2=O)cc1 (stereo unspecified) |  | 27 µM |  | 30.4 µM |  | 39.9 µM |  | 18.2 µM |  | 15.6 µM |  | 17.6 µM |  | 31 µM |  |  |  | 12.8 µM | 45.5 µM | 
CC(C)C1=CC23CCC4C(C)(C(=O)O)CCCC4(C)C2CC1C1C(=O)N(c2cccc(N4C(=O)C5C6CC7C8(C)CCCC(C)(C(=O)O)C8CCC7(C=C6C(C)C)C5C4=O)c2)C(=O)C13 (stereo unspecified) |  | 29.9 µM |  | 39.6 µM |  | > 100 µM |  | 25.5 µM |  | 23.8 µM |  | 25.2 µM |  | 22.7 µM |  |  |  | 22.7 µM | 33.7 µM | 
CCN(CC)/[N+]([O-])=N/OCC(C)O (stereo unspecified) |  | > 100 µM |  | > 100 µM |  | > 100 µM |  | > 100 µM |  |  |  | > 100 µM |  |  |  |  |  | > 100 µM |  | 
COC(=O)c1ccc(/C=C/S(=O)(=O)c2ccccc2)cc1 |  | > 100 µM |  | > 100 µM |  | > 100 µM |  | > 100 µM |  | > 100 µM |  | > 100 µM |  |  |  |  |  | > 100 µM |  | 
COc1cc(OC)cc(C(=O)Cc2c(C(=O)c3ccccc3)c3ccccc3n2C(=O)c2ccccc2)c1 |  | 65.9 µM |  | 31.3 µM |  | > 100 µM |  | > 100 µM |  | 93.4 µM |  | > 100 µM |  |  |  |  |  | > 100 µM |  | 
C#CCN(Cc1nc2cc(C(F)(F)F)ccc2nc1-c1ccccc1)c1ccc(F)cc1 |  |  | 24 µM | 86.8 µM | 20.4 µM | 60.9 µM | 56.4 µM | > 100 µM | 13.8 µM | 50.5 µM | 34.7 µM | > 100 µM | 39.4 µM | > 100 µM | 29.1 µM | 84.7 µM | 29.4 µM | > 100 µM | > 100 µM | 20.8 µM
CCOC(=O)C(=O)C(/C(=N/N(C)C)C(=O)Nc1ccc(C)cc1C)c1nc2ccccc2[nH]c1=O (stereo unspecified) |  | > 100 µM |  | > 100 µM |  | > 100 µM |  | > 100 µM |  |  |  | > 100 µM |  |  |  | > 100 µM |  | > 100 µM | > 100 µM | 
CCCCCN(CCCCC)C(=O)[C@H](CCC(=O)OCc1ccccc1)NC(=O)c1cc2ccccc2[nH]1 |  | > 100 µM |  | > 100 µM |  | > 100 µM |  | > 100 µM |  | > 100 µM |  | > 100 µM |  |  |  |  |  | > 100 µM |  | 
CCOc1ncnc2ccc(Cl)c(I)c12 |  | > 100 µM |  |  |  | > 100 µM |  | > 100 µM |  | > 100 µM |  | > 100 µM |  |  |  |  |  | > 100 µM |  | 
Nc1nc(CC2(O)CCCCC2)cc(-c2ccccc2)n1 |  | > 64.8 µM |  | > 71.9 µM |  | > 72.4 µM |  | > 31.6 µM |  | 32.9 µM |  | > 80.6 µM |  |  |  |  |  | > 84.7 µM |  | 
N/C(=N\N=C\c1ccc(O)c(O)c1)NO |  | > 100 µM |  | > 100 µM |  | > 100 µM |  | > 100 µM |  | > 100 µM |  | > 100 µM |  |  |  |  |  | > 100 µM |  | 
CCOC(=O)NC(=O)c1cn(C2OC(COC(=O)CCCCCCCCC(=O)OCC3OC(n4cc(C(=O)NC(=O)OCC)c(=O)[nH]c4=O)C4OC(C)(C)OC34)C3OC(C)(C)OC32)c(=O)[nH]c1=O (stereo unspecified) |  | > 100 µM |  | > 100 µM |  | > 100 µM |  | > 100 µM |  |  |  | > 100 µM |  |  |  |  |  | > 100 µM |  | 
CC(C)=CCC/C(C)=C/CC/C(C)=C/C1CCC(=O)C1(C)C (stereo unspecified) |  | 34.1 µM |  | 51.7 µM |  | 77.6 µM |  | 42.5 µM |  | 30.8 µM |  | 69.6 µM |  |  |  |  |  | 38.7 µM |  | 
CC1(C)Oc2ccccc2[N+]([O-])=C1c1ccccc1 |  |  |  | > 100 µM |  | > 100 µM |  | > 100 µM |  | > 100 µM |  | > 100 µM |  |  |  |  |  | > 100 µM |  | 
[N-]=[N+]=NC1C2CC3CC(C2)CC1C3 (stereo unspecified) |  | > 100 µM |  | > 100 µM |  | > 100 µM |  | > 100 µM |  | > 100 µM |  | > 100 µM |  |  |  |  |  | > 100 µM |  | 
C[C@H](C(O)CC(=O)C(C)(C)O)[C@H]1CC[C@@]2(C)[C@@H]3CC[C@H]4C(C)(C)[C@@H](OC5OC(COC6OC(CO)C(O)C(O)C6O)C(O)C(O)C5O)CC[C@]4(C)C3=CC[C@]12C (stereo partly specified) |  | > 100 µM |  | > 100 µM |  | > 100 µM |  | > 100 µM |  | > 100 µM |  | > 100 µM |  | > 100 µM |  |  |  | > 100 µM | > 100 µM | 
COc1c(Cl)[c]([Hg][O]C(C)=O)c(NCC(C)=O)c(OC)[c]1[Hg][O]C(C)=O | 11.9 µM | 24.9 µM | 2.28 µM | 6.8 µM | 81.6 µM | > 100 µM | 14.7 µM | 28.6 µM | 22 µM | 54.5 µM | 22.3 µM | 37.3 µM |  |  |  |  | 13.6 µM | 32.4 µM |  | 
Cc1nc(-n2nc(-c3ccccc3)cc2-c2ccccc2)sc1C(=O)/C=C/c1ccc(Cl)cc1 |  | 35.7 µM |  | 43 µM |  | 64.9 µM |  |  |  | 30.1 µM |  | 34.4 µM |  |  |  |  |  | > 100 µM |  | 
CCN(CC)CCC(=O)N1C/C(=C/c2ccccc2)C(=O)/C(=C\c2ccccc2)C1 |  | 5.08 µM |  | 17 µM |  | 17.1 µM |  | 6.63 µM |  | 6.74 µM |  | 26.1 µM |  | 12.5 µM |  |  |  | 10.2 µM | 4.07 µM | 
